Experimental findings from patent US20210255193A1, “LYSINE REACTIVE PROBES AND USES THEREOF” (The Scripps Research Institute, priority 2017, published 2021) are described below.

Common to all, as to test: competitive isoTOP-ABPP
Common to all, as to assay type: binding

Experiment [1] has as its target T1, TPD52L2 Tumor protein D54 (Homo sapiens, UniProt O43399).
T1 construct: isoTOP-ABPP experiments performed in cell lysates (in vitro); endogenous in cells; host or cells: MDA-MB-231 soluble lysate
Also on record: key to isoTOP-ABPP reactivity ratio at lysine O43399_K90: R = MS1 peak area ratio, DMSO (heavy) / compound-treated (light). Particulars: 50 uM, 231 sol, in vitro; for R value (DMSO/fragment) for probe 1 labeling: O43399_K90. The protocol:
(§1) In vitro covalent fragment treatment for isoTOP-ABPP. All compounds were made up as solutions in DMSO (100×) and were used at a final concentration of 50 μM for activated esters and 100 μM for guanidinylating agents. For each profiling sample, 0.5 ml of lysate was treated with 5 μl of the 100× compound stock solution or 5 μl of DMSO. Samples were treated with activated esters for
(§2) STP-alkyne labeling and click chemistry. For concentration-dependent reactivity measurements by isoTOP-ABPP, 0.5 ml proteome aliquots were treated at ambient temperature with 1 mM STP-alkyne 1 (5 μl of 100 mM stock in DMSO) and 0.1 mM STP alkyne 1 (5 μl of 10 mM stock in DMSO), respectively. For competitive isoTOP-ABPP, after in vitro fragment treatment (detailed above), the samples were labeled for 1 h at ambient temperature with 0.1 mM STP-alkyne 1 (5 μl of 10 mM stock in DMSO). Samples were conjugated by copper-mediated azide-alkyne cycloaddition (CuAAC) to either the light (1 mM STP-alkyne or fragment treated) or heavy (0.1 mM STP-alkyne or DMSO treated) TEV tags (10 μl of 5 mM stocks in DMSO, final concentration=100 μM) using tris(2-carboxyethyl)phosphine hydrochloride
(§3) R value calculation and processing. The ratios of light and heavy MS1 peaks for each unique peptide were quantified with a CIMAGE software using default parameters (3 MS1 acquisitions per peak and signal to noise threshold set to 2.5). For reactivity measurements by isoTOP-ABPP, the R value was calculated from the ratio of MS1 peak areas, comparing the 1 mM STP alkyne sample (light TEV tag) with the 0.1 mM STP alkyne sample (heavy TEV tag). For competitive isoTOP-ABPP, the R value was calculated from the ratio of MS1 peak areas, comparing the DMSO treated sample (heavy TEV tag) with the compound treated sample (light TEV tag). […] Ratios for unique peptide entries are calculated for each experiment; overlapping peptides with the same modified lysine (for example, different charge states, MudPIT chromatographic steps or tryptic termini) are grouped together and the median ratio is reported as the final ratio (R). The peptide ratios reported by CIMAGE were further filtered to ensure the removal or correction of low-quality ratios in each individual data set. The quality filters applied were the following: removal of half tryptic peptides; for ratios with high standard deviations from the median (90% of the median or above) the lowest ratio was taken instead of the median; removal of peptides with R=20 and only a single MS2 event triggered during the elution of the parent ion; manual annotation of all the peptides with ratios of 20, removing any peptides with low quality elution profiles that remained after the previous curation steps (only done for competitive isoTOP-ABPP).
(§4) Cross-data processing for fragment screening. For compound treated samples, biological replicates of the same condition were averaged, if the standard deviation was below 60% of the mean; otherwise, for lysines with at least one R value <4 for a particular compound, the lowest value of the ratio set was taken. For lysines, where all R values for a particular compound were ≥4, the average was reported. For peptides containing several possible modified lysines, the lysine with the highest number of quantification events was used for analysis and the remaining, redundant peptides were reported as alternative modification sites. Peptides included in the aggregate dataset (those used for further bioinformatics and statistical analyses) were required to have been quantified in 2 experiments for competitive isoTOP-ABPP. Lysines were categorized as liganded, if they had at least one ratio R≥4 (hit fragments). For liganded lysines with R=20 for all liganding events, lysines were required to have been quantified with R=20 in two separate experiments and were further required to have been quantified with R<20 in one additional experiment.

For experiment [2], the target named is T2, CPOX Coproporphyrinogen-III oxidase, mitochondrial (Homo sapiens, UniProt P36551).
T2 construct: isoTOP-ABPP experiments performed in cell lysates (in vitro); endogenous in cells; host or cells: soluble proteome of human cancer cell lines (MDA-MB-231; Ramos and Jurkat also prepared)
T2 sequence (P36551 111-454): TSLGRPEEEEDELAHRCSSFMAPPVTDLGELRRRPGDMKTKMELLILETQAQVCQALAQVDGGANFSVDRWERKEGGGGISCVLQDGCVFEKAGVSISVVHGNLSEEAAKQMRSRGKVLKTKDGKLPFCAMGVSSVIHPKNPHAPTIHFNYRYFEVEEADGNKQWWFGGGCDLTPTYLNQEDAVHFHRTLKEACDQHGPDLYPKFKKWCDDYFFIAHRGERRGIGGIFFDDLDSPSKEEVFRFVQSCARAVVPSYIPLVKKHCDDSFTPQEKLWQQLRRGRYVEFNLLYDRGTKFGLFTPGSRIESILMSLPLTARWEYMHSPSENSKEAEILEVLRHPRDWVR
On the set-up: key to isoTOP-ABPP reactivity ratio at lysine P36551_K404: R = MS1 peak area ratio, DMSO (heavy) / compound-treated (light). The settings on record: 50 uM, 231 sol, in vitro; for R value (DMSO/fragment) for probe 1 labeling: P36551_K404. The procedure: as §1, §2, §3, §4

For experiment [3], the target named is T3, PFKP 6-phosphofructokinase type C (Homo sapiens, UniProt Q01813).
T3 construct: isoTOP-ABPP experiments performed in cell lysates (in vitro); endogenous in cells
T3 sequence (Q01813 1-784): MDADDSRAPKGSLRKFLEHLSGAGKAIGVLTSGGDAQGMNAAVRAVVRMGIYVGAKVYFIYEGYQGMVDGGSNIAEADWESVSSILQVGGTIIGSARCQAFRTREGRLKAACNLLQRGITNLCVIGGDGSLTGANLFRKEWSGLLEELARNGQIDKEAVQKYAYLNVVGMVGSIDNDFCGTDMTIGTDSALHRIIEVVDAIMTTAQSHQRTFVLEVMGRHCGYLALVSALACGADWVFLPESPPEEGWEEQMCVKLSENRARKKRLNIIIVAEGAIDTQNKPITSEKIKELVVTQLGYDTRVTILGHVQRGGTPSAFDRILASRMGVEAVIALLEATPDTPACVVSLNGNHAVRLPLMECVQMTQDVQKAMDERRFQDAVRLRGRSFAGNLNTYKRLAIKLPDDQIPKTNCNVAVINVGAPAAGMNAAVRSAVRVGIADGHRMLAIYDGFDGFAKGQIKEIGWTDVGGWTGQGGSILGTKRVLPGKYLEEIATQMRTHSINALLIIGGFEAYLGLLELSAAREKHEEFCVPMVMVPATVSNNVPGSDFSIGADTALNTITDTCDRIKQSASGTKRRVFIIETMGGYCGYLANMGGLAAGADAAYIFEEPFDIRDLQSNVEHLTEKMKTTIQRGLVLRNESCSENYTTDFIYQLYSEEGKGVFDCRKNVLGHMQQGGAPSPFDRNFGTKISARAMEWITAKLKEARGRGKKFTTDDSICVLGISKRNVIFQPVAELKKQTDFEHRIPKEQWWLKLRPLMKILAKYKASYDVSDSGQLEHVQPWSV
On the set-up: key to isoTOP-ABPP reactivity ratio at lysine Q01813_K688: R = MS1 peak area ratio, DMSO (heavy) / compound-treated (light). The settings on record: for R value (DMSO/fragment) for probe 1 labeling: Q01813_K688; for R value (DMSO/fragment) for probe 1 labeling / isoTOP-ABPP reactivity ratio at lysine Q01813_K688: 50 uM, 231 sol, in vitro. The protocol: as §1, §2, §3, §4

T1 sequence (O43399 whole entry): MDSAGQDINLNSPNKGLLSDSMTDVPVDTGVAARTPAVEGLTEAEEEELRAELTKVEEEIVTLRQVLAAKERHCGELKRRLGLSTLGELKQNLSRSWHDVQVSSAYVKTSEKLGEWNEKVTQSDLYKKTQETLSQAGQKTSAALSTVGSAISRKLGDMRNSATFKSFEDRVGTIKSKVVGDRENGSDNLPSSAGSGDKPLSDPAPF

Regarding `O=C(CCc1cn(-c2ccccc2)nc1-c1ccccc1)Oc1c(F)c(F)c(F)c(F)c1F` [fragment 19, Pentafluorophenyl 3-(1,3-diphenyl-1H-pyrazol-4-yl)propanoate], the “R value (DMSO/fragment) for probe 1 labeling” value (“R value (DMSO/fragment)” for short) turned out to be 2.6 in experiment [1], 10.8 in experiment [2] and 1.5 in experiment [3].
Turning to `O=C(Oc1c(F)c(F)c(F)c(F)c1F)C(c1ccccc1)c1ccccc1` [fragment 20, Pentafluorophenyl 2,2-diphenylacetate], the “R value (DMSO/fragment)” value in experiment [1] is 1.5; in experiment [2] it was 1.1; in experiment [3], 20.0. Moreover, the “blockade of probe 1 labeling of K688” value in experiment [3] (PFKP K688) is given as “completely blocked”.
Turning to `O=C(Oc1c(F)c(F)c(F)c(F)c1F)c1cc(C(F)(F)F)cc(C(F)(F)F)c1` [fragment 21, Pentafluorophenyl 3,5-bis(trifluoromethyl)benzoate], the “R value (DMSO/fragment)” value in experiment [1] is given as 2.0; in experiment [2] it was 1.0; in experiment [3], 1.1.
In the case of `Cn1cc(CC(=O)Oc2c(F)c(F)c(F)c(F)c2F)c2ccccc21` [fragment 22, Pentafluorophenyl 2-(1-methyl-1H-indol-3-yl)acetate], the “R value (DMSO/fragment)” value in experiment [1] was found to be 3.6; in experiment [2], 1.1; in experiment [3], 2.0.
The corresponding values for `COc1cc(CCC(=O)Oc2c(F)c(F)c(F)c(F)c2F)cc(OC)c1OC` [fragment 23, Pentafluorophenyl 3-(3,4,5-trimethoxyphenyl)propanoate] are 1.5, 1.3 and 2.1.
`O=C(Oc1c(F)c(F)c(F)c(F)c1F)C1CCN(C(=O)OCc2ccccc2)CC1` [fragment 24, 1-Benzyl 4-(pentafluorophenyl) piperidine-1,4-dicarboxylate]: in experiment [1], the “isoTOP-ABPP reactivity ratio at lysine O43399_K90” value is 1.9. In experiment [2], the “isoTOP-ABPP reactivity ratio at lysine P36551_K404” value amounted to 1.2. Moreover, the “isoTOP-ABPP reactivity ratio at lysine Q01813_K688” value in experiment [3] was 2.5.
For `O=C(Oc1c(F)c(F)c(F)c(F)c1F)c1ccc2ccccc2n1` [fragment 25, Pentafluorophenyl quinoline-2-carboxylate], in that order: 1.5, 1.3 and 15.6.
On to `O=C(CCc1coc2cc(F)ccc2c1=O)Oc1c(F)c(F)c(F)c(F)c1F` [fragment 26, Pentafluorophenyl 3-(7-fluoro-4-oxo-4H-chromen-3-yl)propanoate], for which the “isoTOP-ABPP reactivity ratio at lysine O43399_K90” value in experiment [1] stood at 1.3. The “isoTOP-ABPP reactivity ratio at lysine P36551_K404” value in experiment [2] was 1.1. In experiment [3], the “isoTOP-ABPP reactivity ratio at lysine Q01813_K688” value is on record as 6.4.
The corresponding values for `O=C(CN1C(=O)c2ccccc2C1=O)Oc1c(F)c(F)c(F)c(F)c1F` [fragment 27, Pentafluorophenyl 2-(1,3-dioxoisoindolin-2-yl)acetate] are 1.4, 1.2 and 20.0.
In the case of `CCn1cc(C(=O)Oc2c(F)c(F)c(F)c(F)c2F)c(=O)c2ccc(C)nc21` [fragment 28, Pentafluorophenyl 1-ethyl-7-methyl-4-oxo-1,4-dihydro-1,8-naphthyridine-3-carboxylate], the “isoTOP-ABPP reactivity ratio at lysine O43399_K90” value in experiment [1] came out at 1.1. Also, the “isoTOP-ABPP reactivity ratio at lysine P36551_K404” value in experiment [2] worked out at 0.9. Further, the “isoTOP-ABPP reactivity ratio at lysine Q01813_K688” value in experiment [3] turned out to be 1.3.
For the molecule `O=C(CCc1cn(-c2ccccc2)nc1-c1ccccc1)Oc1ccc([N+](=O)[O-])cc1[N+](=O)[O-]` [fragment 29, 2,4-Dinitrophenyl 3-(1,3-diphenyl-1H-pyrazol-4-yl)propanoate], the “isoTOP-ABPP reactivity ratio at lysine O43399_K90” value in experiment [1] was found to be 3.1. In experiment [2], the “isoTOP-ABPP reactivity ratio at lysine P36551_K404” value amounted to 18.1. In addition, the “isoTOP-ABPP reactivity ratio at lysine Q01813_K688” value in experiment [3] was 12.8.
The corresponding values for `O=C(Oc1ccc([N+](=O)[O-])cc1[N+](=O)[O-])C(c1ccccc1)c1ccccc1` [fragment 30, 2,4-Dinitrophenyl 2,2-diphenylacetate] are 5.5, 1.1 and 20.0.
On to `O=C(Oc1ccc([N+](=O)[O-])cc1[N+](=O)[O-])c1cc(C(F)(F)F)cc(C(F)(F)F)c1` [fragment 31, 2,4-Dinitrophenyl 3,5-bis(trifluoromethyl)benzoate], for which the “isoTOP-ABPP reactivity ratio at lysine O43399_K90” value in experiment [1] stood at 3.3. The “isoTOP-ABPP reactivity ratio at lysine P36551_K404” value in experiment [2] was determined as 1.1. Further, the “isoTOP-ABPP reactivity ratio at lysine Q01813_K688” value in experiment [3] is given as 2.3.
Regarding `Cn1cc(CC(=O)Oc2ccc([N+](=O)[O-])cc2[N+](=O)[O-])c2ccccc21` [fragment 32, 2,4-Dinitrophenyl 2-(1-methyl-1H-indol-3-yl)acetate], the “isoTOP-ABPP reactivity ratio at lysine O43399_K90” value in experiment [1] was 2.7. The “isoTOP-ABPP reactivity ratio at lysine P36551_K404” value in experiment [2] is 1.0. The “isoTOP-ABPP reactivity ratio at lysine Q01813_K688” value in experiment [3] stood at 12.6.
